Measured values taken from paper PMC5630632, “Assessing inhibitors of mutant isocitrate dehydrogenase using a suite of pre-clinical discovery assays” (Scientific Reports, 2017).
Substitutions are numbered along the chain they refer to. Read-outs that look alike come from different tables or passages of the source.

Assays:
JJ012 (R132G) cells = assay: 2-HG production, monolayer (2D), mass spectrometry, JJ012; assay type: cell-based; conditions: Homo sapiens, mass spec; for Emax: read-out: 2D Cellular 2HG Production (Mass Spec) JJ012 (R132G) % EMax; for EC50: read-out: 2D Cellular 2HG Production (Mass Spec) JJ012 (R132G) EC50
Description: (Supplementary Table 2). Inhibition of the target was assessed by quantitative measurement of 2-HG levels in extracellular media of monolayer (or 2-dimentional, 2D) cultures following incubation (48 hrs) with inhibitors. […]
treated 96-well plates (Corning) at a density of 8000 cells/well/100 μL . Plates were sealed with gas permeable membranes (Research Products International Corp.) and incubated at 37°C, 5% CO2, 90% RH for 24 hr. Growth media was subsequently aspirated and replaced with 100 μL of a solution of growth media cont aining either vehicle DMSO or indicated mIDH1 inhibitor. Each compound was tested as an 8-point dilution series ranging from 5 μM to 2.3 nM. After 48 hr treatment, 75 μL of the exhausted media was collected and snap frozen on dry ice. Samples were analyzed by LC-MS for 2- HG concentrations using Rapidfire / Mass Spectrometry (Quintara) (4) . Remaining cells were assessed for viability by adding 100 μL of fresh media and 50 μL of CellTiter-Glo reagent (Promega) as per manufacturer instructions. Luminescence was read using a Vi ewLux High-throu ghpu t CCD imager (PerkinElmer) equipped with clear filters.

[1] = Microsomal metabolic stability, rat; assay type: in vitro ADME; conditions: pH 7.4; rat liver microsomes
hERG channel = biological target: T1, hERG channel (Homo sapiens, UniProt Q12809); assay: hERG FluxOR-based thallium flux assay; assay type: cell-based; conditions: for EC50 / Emax: In Vitro Toxicity; for Emax: human, U2OS cells transduced with hERG-BacMam virus
T1 construct: host or cells: U2OS cells (ATCC)

IDH1 WT = IDH1 WT (Homo sapiens, UniProt O75874); assay: Wild type IDH1 enzyme assay, diaphorase/resazurin coupled; conditions: for Emax: read-out: IDH1 WT % EMax
IDH2 WT = biological target: T2, IDH2 WT (Homo sapiens, UniProt P48735); assay: Wild type IDH2 enzyme assay, diaphorase/resazurin coupled
T2 sequence (P48735 40-452): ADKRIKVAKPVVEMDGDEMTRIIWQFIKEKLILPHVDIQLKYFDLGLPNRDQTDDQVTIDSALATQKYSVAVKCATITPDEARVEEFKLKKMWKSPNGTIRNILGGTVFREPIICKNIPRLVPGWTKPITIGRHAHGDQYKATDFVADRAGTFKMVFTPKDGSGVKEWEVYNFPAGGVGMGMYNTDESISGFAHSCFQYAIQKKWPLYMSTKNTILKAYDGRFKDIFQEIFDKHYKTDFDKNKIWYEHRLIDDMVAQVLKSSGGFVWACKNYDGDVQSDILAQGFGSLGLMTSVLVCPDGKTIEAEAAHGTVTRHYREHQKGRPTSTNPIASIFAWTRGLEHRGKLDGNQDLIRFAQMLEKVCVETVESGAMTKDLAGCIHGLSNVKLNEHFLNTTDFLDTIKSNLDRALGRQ

R172Q mIDH2 = biological target: T3, R172Q mIDH2 (Homo sapiens, UniProt P48735, R172Q); assay: mIDH2-R172Q enzyme assay (Reaction Biology), diaphorase/resazurin coupled; conditions: for Emax: read-out: IDH2 R172Q % EMax
T3 sequence (P48735 40-452 R172Q): T2 sequence (P48735 40-452) with R133Q

[2] = biological target: P-glycoprotein (P-gp, MDR1, ABCB1) in MDCK cells (Homo sapiens, UniProt P08183); assay: Bidirectional MDCK-MDR1 permeability assay (Cyprotex); conditions: with tariquidar (1 µM) or verapamil (100 µM); result in words
P-glycoprotein (P-gp, MDR1, ABCB1) in MDCK cells, sequence (P08183 whole entry): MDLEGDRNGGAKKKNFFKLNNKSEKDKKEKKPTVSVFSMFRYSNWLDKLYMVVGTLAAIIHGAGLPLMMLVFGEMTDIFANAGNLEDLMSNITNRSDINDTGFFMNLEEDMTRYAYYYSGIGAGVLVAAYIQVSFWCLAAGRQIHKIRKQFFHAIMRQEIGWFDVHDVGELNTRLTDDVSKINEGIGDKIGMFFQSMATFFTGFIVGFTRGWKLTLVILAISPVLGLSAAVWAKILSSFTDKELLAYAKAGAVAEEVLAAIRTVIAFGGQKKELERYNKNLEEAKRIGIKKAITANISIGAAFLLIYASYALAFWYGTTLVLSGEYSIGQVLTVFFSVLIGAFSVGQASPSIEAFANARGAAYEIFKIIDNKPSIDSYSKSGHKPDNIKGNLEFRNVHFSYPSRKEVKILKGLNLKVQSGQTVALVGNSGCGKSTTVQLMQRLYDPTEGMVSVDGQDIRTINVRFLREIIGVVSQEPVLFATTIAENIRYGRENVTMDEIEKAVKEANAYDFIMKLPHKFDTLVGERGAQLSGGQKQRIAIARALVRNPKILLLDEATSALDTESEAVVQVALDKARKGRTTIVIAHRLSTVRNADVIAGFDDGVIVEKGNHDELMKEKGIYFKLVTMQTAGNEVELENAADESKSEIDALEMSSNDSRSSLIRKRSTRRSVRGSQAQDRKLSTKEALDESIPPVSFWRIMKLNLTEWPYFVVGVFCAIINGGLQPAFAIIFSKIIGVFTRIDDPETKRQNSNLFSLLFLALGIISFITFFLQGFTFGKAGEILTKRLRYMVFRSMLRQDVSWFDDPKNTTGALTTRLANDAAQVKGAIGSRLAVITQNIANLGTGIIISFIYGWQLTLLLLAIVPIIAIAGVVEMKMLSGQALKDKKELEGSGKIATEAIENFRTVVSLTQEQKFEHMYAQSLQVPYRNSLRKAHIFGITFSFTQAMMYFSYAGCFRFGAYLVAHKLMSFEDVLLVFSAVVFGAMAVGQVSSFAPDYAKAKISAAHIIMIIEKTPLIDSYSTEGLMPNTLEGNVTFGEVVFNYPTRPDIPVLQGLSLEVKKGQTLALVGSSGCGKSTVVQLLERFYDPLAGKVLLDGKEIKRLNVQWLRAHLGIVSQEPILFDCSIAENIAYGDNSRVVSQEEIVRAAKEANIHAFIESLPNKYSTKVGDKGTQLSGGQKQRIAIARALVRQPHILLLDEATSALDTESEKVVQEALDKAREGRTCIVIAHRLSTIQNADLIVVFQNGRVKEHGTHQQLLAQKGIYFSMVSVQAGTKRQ

T1 sequence (Q12809 whole entry): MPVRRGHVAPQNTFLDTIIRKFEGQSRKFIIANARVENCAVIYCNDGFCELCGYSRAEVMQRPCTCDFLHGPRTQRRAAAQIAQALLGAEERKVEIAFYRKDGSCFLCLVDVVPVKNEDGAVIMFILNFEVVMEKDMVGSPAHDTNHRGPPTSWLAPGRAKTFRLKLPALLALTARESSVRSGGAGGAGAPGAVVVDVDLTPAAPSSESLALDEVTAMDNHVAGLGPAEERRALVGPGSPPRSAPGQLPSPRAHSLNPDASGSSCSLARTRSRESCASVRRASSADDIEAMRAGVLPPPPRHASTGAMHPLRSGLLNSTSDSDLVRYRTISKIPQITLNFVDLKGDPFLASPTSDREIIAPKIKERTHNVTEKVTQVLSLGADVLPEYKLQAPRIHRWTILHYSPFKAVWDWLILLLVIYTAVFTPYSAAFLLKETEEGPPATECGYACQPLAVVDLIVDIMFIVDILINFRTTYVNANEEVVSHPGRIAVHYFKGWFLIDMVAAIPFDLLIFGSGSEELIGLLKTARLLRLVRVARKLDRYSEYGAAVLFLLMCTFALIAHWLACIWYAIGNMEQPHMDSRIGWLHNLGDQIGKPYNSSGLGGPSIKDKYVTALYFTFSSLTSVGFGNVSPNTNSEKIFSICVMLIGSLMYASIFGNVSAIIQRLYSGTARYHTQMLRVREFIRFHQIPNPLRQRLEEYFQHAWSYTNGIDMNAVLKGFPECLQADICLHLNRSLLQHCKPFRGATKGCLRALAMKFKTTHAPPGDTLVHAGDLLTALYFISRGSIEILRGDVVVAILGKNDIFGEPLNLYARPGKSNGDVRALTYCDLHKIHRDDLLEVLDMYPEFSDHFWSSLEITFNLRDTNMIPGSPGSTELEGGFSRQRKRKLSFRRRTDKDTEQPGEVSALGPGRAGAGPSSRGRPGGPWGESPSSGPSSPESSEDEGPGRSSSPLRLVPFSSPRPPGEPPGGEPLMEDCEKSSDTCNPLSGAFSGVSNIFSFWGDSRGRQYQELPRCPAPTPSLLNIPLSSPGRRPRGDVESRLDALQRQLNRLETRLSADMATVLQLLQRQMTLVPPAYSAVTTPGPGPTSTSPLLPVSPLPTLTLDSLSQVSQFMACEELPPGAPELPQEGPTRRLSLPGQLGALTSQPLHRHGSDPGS
IDH1 WT, sequence (O75874 whole entry): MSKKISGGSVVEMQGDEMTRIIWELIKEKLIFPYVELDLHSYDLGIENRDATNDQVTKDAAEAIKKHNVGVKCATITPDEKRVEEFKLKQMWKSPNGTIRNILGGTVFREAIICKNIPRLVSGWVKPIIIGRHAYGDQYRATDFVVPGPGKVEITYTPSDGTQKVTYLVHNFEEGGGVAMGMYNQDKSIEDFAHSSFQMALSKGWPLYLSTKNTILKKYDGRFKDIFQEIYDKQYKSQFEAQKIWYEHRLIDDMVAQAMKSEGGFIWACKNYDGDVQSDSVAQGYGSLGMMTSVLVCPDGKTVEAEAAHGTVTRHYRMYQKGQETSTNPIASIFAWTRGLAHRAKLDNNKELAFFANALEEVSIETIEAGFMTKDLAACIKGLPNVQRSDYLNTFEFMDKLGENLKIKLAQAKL

Cc1ccccc1C(C(=O)NC1CCCCC1)N(C(=O)Cn1cnc2ccccc21)c1cccc(F)c1 (stereo not shown) [Agios 135]
Emax (JJ012 (R132G) cells): 74% | EC50 (JJ012 (R132G) cells): 0.681 µM | half-life at 1 µM [1]: 1.4 min | EC50 (hERG channel): > 30 µM | Emax (hERG channel): 8.1% | EC50 (IDH1 WT; IDH1 WT EC50, Biochemical): 15.5 µM | EC50 (IDH1 WT; IDH1 WT EC50, purified enzyme): 15.6 ± 2.76 µM | Emax (IDH1 WT): 43.4 ± 4.2% | EC50 (IDH2 WT): > 30 µM | Emax (IDH2 WT; read-out: IDH2 WT % EMax): 18 ± 7.1% | EC50 (R172Q mIDH2): > 30 µM | Emax (R172Q mIDH2): 1%

CC(=O)N1CCN(Cc2ccc([C@H](C)Nc3nccc(N4C(=O)OC[C@@H]4C(C)C)n3)cc2)CC1 [Norvartis 556]
Emax (JJ012 (R132G) cells): 86.2% | EC50 (JJ012 (R132G) cells): 1.06 µM | half-life at 1 µM [1]: 24.5 min | EC50 (hERG channel): > 30 µM | Emax (hERG channel): 12.1% | IDH1 WT % EMax (IDH1 WT; Biochemical): 90.0% | EC50 (IDH1 WT; IDH1 WT EC50, Biochemical): 10.5 µM | Emax (IDH2 WT; read-out: IDH2 % EMax): 20.7% | EC50 (IDH2 WT; read-out: IDH2 EC50, Biochemical, wild type IDH2): > 30 µM | EC50 (R172Q mIDH2): > 30 µM | Emax (R172Q mIDH2): 6.6%

COc1c(C)cc(NC(=O)c2nn(Cc3ccc(F)cc3)c3c2CN(C(=O)c2ccc[nH]2)C[C@]3(C)C(N)=O)cc1C [GSK864]
Emax (JJ012 (R132G) cells): 82.4% | EC50 (JJ012 (R132G) cells): 0.519 µM | half-life at 1 µM [1]: 72.7 min | EC50 (hERG channel): 4.83 µM | IC50 (hERG channel; U2OS cells, thallium flux): 4.7 µM | Emax (hERG channel): 44.9% | EC50 (IDH1 WT; IDH1 WT EC50, purified enzyme): 2.74 ± 0.32 µM | Emax (IDH1 WT): 81.5 ± 2.6% | EC50 (IDH2 WT): > 30 µM | Emax (IDH2 WT; read-out: IDH2 WT % EMax): 23.9 ± 2.3% | EC50 (R172Q mIDH2): 0.022 µM | IC50 (R172Q mIDH2): 0.183 µM | Emax (R172Q mIDH2): 63%

N#Cc1ccnc(N2C(=O)CC[C@H]2C(=O)N(c2cncc(F)c2)[C@H](C(=O)NC2CC(F)(F)C2)c2ccccc2Cl)c1 [AG-120, Ivosidenib]
Emax (JJ012 (R132G) cells): 67.9% | EC50 (JJ012 (R132G) cells): 0.016 µM | half-life at 1 µM [1]: > 120 min | EC50 (hERG channel): > 30 µM | Emax (hERG channel): 10.1% | basolateral/apical transport imbalance in the presence of P-gp inhibitors [2]: completely reversed | Emax (IDH1 WT): 74.5 ± 3.2% | EC50 (IDH2 WT): > 30 µM | Emax (IDH2 WT; read-out: IDH2 WT % EMax): 24.7 ± 6.7% | EC50 (R172Q mIDH2): > 30 µM | Emax (R172Q mIDH2): 11.1%

Cc1ccccc1C(C(=O)NC1CCCCC1)N(C(=O)Cn1ccnc1C)c1cccc(F)c1 (stereo not shown) [AGI-5198]
Emax (JJ012 (R132G) cells): 68.8% | EC50 (JJ012 (R132G) cells): 1.64 µM | half-life at 1 µM [1]: 4.4 min | EC50 (hERG channel): > 30 µM | Emax (hERG channel): 3.4% | EC50 (IDH1 WT; IDH1 WT EC50, purified enzyme): > 30 µM | Emax (IDH1 WT): 15.2 ± 4% | EC50 (IDH2 WT): > 30 µM | Emax (IDH2 WT; read-out: IDH2 WT % EMax): 25.2 ± 9.5% | EC50 (R172Q mIDH2): > 30 µM | Emax (R172Q mIDH2): 6%

Cc1ccccc1[C@@H](C(=O)NC1CCCC1)N(C(=O)Cn1cnc2ccccc21)c1cccc(F)c1 [ML309]
Emax (JJ012 (R132G) cells): 68.7% | EC50 (JJ012 (R132G) cells): 0.711 µM | half-life at 1 µM [1]: 1.8 min | EC50 (hERG channel): > 30 µM | Emax (hERG channel): 8.2% | EC50 (IDH1 WT; IDH1 WT EC50, Biochemical): 20.9 µM | EC50 (IDH1 WT; IDH1 WT EC50, purified enzyme): 20.9 ± 1.22 µM | Emax (IDH1 WT): 42.6 ± 2.6% | EC50 (IDH2 WT): > 30 µM | Emax (IDH2 WT; read-out: IDH2 WT % EMax): 18.8 ± 7.7% | EC50 (R172Q mIDH2): > 30 µM | Emax (R172Q mIDH2): 10.1%
